Mortality data for one compound are collected here from patent US11882830B2, “Pesticidal mixture comprising a carboxamide compound and a biopesticide” (priority 2015, dated 2024).

The test system of one assay is southern armyworm. Put plainly: Lepidopteran efficacy: neonate southern armyworm via lima bean leaf dip. Format: in vivo. Conditions: Spodoptera eridania, foliar, 96 h, broflanilide @ 0.0025 ppm, 4 DAT, read-out: Mean % Mortality @ Days after Treatment 4 DAT. The source says:
(§1) Synergism can be described as an interaction where the combined effect of two or more compounds is greater than the sum of the individual effects of each of the compounds.
(§2) When the observed combined control effect is greater than the expected combined control effect (E), then the combined effect is synergistic.
(§3) Large leaf lima bean (southern armyworm) and radish (diamondback moth) were dipped in treatment solution and allowed to dry. The leaves were excised and placed individually into square petri dishes containing two filter paper discs moistened with 0.5 ml of reverse osmosis water. One neonate insect per dish (total of 20 dishes per treatment, grouped into 5 dishes per replicate) were infested for the test with southern armyworm. Five insects per dish (total of 5 dishes per treatment) were infested for the test with diamondback moth. The studies were held in an environmental chamber 14 L: 10 D at 30° C. and 70% RH. The number of dead and moribund insects were recorded (moribund was considered dead). Rate rundowns were conducted initially to determine sublethal rates for the combination testing.
(§4) 5 replications with 5 insects are each conducted per treatment, insects are held singly.
(§5) Control mortality is less than 15% and standard treatments yielded 100% mortality.

A further assay relates to diamondback moth. Put plainly: Lepidopteran efficacy: neonate diamondback moth via radish leaf dip. Type of assay: in vivo. The note with it: Plutella xylostella, foliar, 48 h, broflanilide @ 0.01 ppm, 2 DAT, read-out: Mean % Mortality @ Days after Treatment 2 DAT.
Excerpt: as §1, §2, §3, §4, §5

A word on the mortality: it is the share of the test organisms that died.

With `CN(C(=O)c1ccccc1)c1cccc(C(=O)Nc2c(Br)cc(C(F)(C(F)(F)F)C(F)(F)F)cc2C(F)(F)F)c1F` [broflanilide], in the assay with southern armyworm, the mortality at 0.0025 ppm was found to be 23.5%. Besides, the mortality at 0.01 ppm with diamondback moth amounted to 44%.
